Assay results from the NIST ThermoML archive (doi:10.1016/j.fluid.2018.04.020).
Numbers after ± are expanded uncertainties.

Conditions: 101.33 kPa, Liquid, Vibrating tube method

Row | Structure (SMILES) | mass density (293.15 K) [kg/m3] | mass density (303.15 K) [kg/m3] | mass density (313.15 K) [kg/m3] | mass density (323.15 K) [kg/m3]
1 | CCCC[N+]1(C)CCCC1.N#CC(=C=[N-])C#N [1-butyl-1-methylpyrrolidinium tricyanomethanide] | 1008.9 ± 2.2 | 1003 ± 2.1 | 997.3 ± 2.1 | 991.4 ± 2.1
2 | CCCC[n+]1ccc(C)cc1.N#CC(=C=[N-])C#N [1-butyl-4-methylpyridinium tricyanomethanide] | 1038.3 ± 2.2 | 1032.1 ± 2.2 | 1025.7 ± 2.2 | 1019.7 ± 2.2
